The values that follow come from patent US12012622B1, “Paenibacillus pabuli-derived enzyme capable of producing galacto-oligosaccharide, and method for producing galacto-oligosaccharide” (GODO SHUSEI CO., LTD., priority 2018, dated 2024).

Marks after values point to notes of the source that are not given here.

For assay [1], the system named is Paenibacillus pabuli lactase (enzyme of Example 1, SEQ ID NO: 1). As to the kind of experiment: Analysis of reaction rate parameter with ONPG as substrate (Validation 1). It is filed as biochemical. The conditions noted are these: substrate ONPG 0.075 to 7.5 mM; 40° C., 10 minutes; 100 mM sodium phosphate (pH 6.5). From the text: After the production of each enzyme, the transformant was ultrasonically disrupted to give a cell disruption liquid. […] The prepared cell disruption liquids were each ultra-filtered as necessary to concentrate the enzyme. The concentrated disruption liquid of the enzyme consisting of an amino acid sequence set forth in SEQ ID NO: 1 was defined as Example 1, and the concentrated disruption liquid of the enzyme consisting of an amino acid sequence set forth in SEQ ID NO: 2 was defined as Example 2.
The reaction rate parameter when using the ONPG of the enzyme of Example 1 as the substrate was determined by the following method. The specific activity (μmol/mg protein/min) upon reaction at a substrate concentration of 0.075 to 7.5 mM at 40° C. for 10 minutes was calculated, and the specific activity was plotted to each substrate concentration. At this time, 100 mM sodium phosphate (pH 6.5) was used as the buffer. From the substrate saturation curve measured by the above method, following the Michaelis-Menten equation, Km (Michaelis-Menten constant), which indicates the affinity between the enzyme and the substrate, and V. (maximum velocity), which indicates how many micromoles of substrate is catalyzed in 1 minute per mg of the enzyme, were calculated.

For assay [2], the system named is Bacillus circulans lactase β-galII (main enzyme of BIOLACTA). The settings on record: substrate ONPG; cited from Non-Patent Literature 1; cited from earlier work.

Consider `O=[N+]([O-])c1ccccc1O[C@@H]1O[C@H](CO)[C@H](O)[C@H](O)[C@H]1O` [ONPG, o-nitrophenyl-β-galactopyranoside], for which the Km in assay [1] was 0.36 mM; in assay [2], 10 mM. Also, the Vmax in assay [1] was 55.0 units/mg protein; in assay [2], 56.0* units/mg protein.
